Assay results: ChEMBL document CHEMBL1149649, “Synthesis and anti-influenza activities of carboxyl alkoxyalkyl esters of 4-guanidino-Neu5Ac2en (zanamivir)” (Bioorg Med Chem Lett, 2007); call rule not given here

Experiments:
Influenza B virus [1] = assay: Antiviral activity against influenza B/Sichuan/83/2000 virus in MDCK cells by CPE assay; format: functional, organism-based
Influenza B virus [2] = assay: Antiviral activity against influenza B/Jingfang/76/98 in MDCK cells by CPE assay; format: functional, organism-based
Influenza B virus [3] = assay: Antiviral activity against influenza B/Jifang/13/97 virus in MDCK cells by CPE assay; format: functional, organism-based
Influenza A virus [4] = assay: Antiviral activity against influenza A/Hanfang/359/95 (H3N2) virus in MDCK cells by CPE assay; format: functional, organism-based
Influenza A virus [5] = assay: Antiviral activity against influenza A/Yuefang/243/72 (H3N2) virus in MDCK cells by CPE assay; format: functional, organism-based
Influenza A virus [6] = assay: Antiviral activity against influenza A/Jingfang/262/95(H1N1) virus in MDCK cells by CPE assay; format: functional, organism-based
Influenza A virus [7] = assay: Antiviral activity against influenza A/Jifang/15/90 (H3N2) virus in MDCK cells by CPE assay; format: functional, organism-based
Mus musculus [8] = assay: Weight change in mouse at 62.5 mg/kg, ip bid after 14 days; format: ADME, organism-based; parameters: dose 62.5 mg/kg, route intraperitoneal; conditions: in vivo, 336 h
Influenza A virus [9] = assay: Antiviral activity against influenza A/Jingfang/Fm1 (H1N1) infected in mouse assessed as survival of mouse at 62.5 mg/kg, po bid after 2 hrs of viral infection for 5 days; format: functional
Influenza A virus [10] = assay: Antiviral activity against influenza A/Jingfang/Fm1 (H1N1) infected in mouse assessed as mean survival time of mouse at 31.25 mg/kg, po bid after 2 hrs of viral infection for 5 days; format: functional
Mus musculus [11] = assay: Survival of mouse at 31.25 mg/kg, po bid after 5 days; format: ADME, organism-based; parameters: dose 31.25 mg/kg, route oral; conditions: in vivo, 120 h
Mus musculus [12] = assay: Weight change in mouse at 31.25 mg/kg, po bid after 14 days; format: ADME, organism-based; parameters: dose 31.25 mg/kg, route oral; conditions: in vivo, 336 h
Influenza A virus [13] = assay: Antiviral activity against influenza A/Jingfang/Fm1 (H1N1) infected in mouse assessed as survival of mouse at 31.25 mg/kg, po bid after 2 hrs of viral infection for 5 days; format: functional
Influenza A virus [14] = assay: Antiviral activity against influenza A/Jingfang/Fm1 (H1N1) virus infected in mouse assessed as survival of mouse at 125 mg/kg, po bid after 2 hrs of viral infection for 5 days; format: functional
Influenza A virus [15] = assay: Antiviral activity against influenza A/Jingfang/Fm1 (H1N1) infected in mouse assessed as mean survival time of mouse at 62.5 mg/kg, po bid after 2 hrs of viral infection for 5 days; format: functional
Influenza A virus [16] = assay: Antiviral activity against influenza A/Jingfang/Fm1 (H1N1) infected in mouse assessed as survival of mouse at 62.5 mg/kg, ip bid after 2 hrs of viral infection for 5 days; format: functional; conditions: route intraperitoneal
Mus musculus [17] = assay: Survival of mouse at 125 mg/kg, po bid after 5 days; format: ADME, organism-based; parameters: dose 125 mg/kg, route oral; conditions: in vivo, 120 h
Mus musculus [18] = assay: Survival of mouse at 62.5 mg/kg, ip bid after 5 days; format: ADME, organism-based; parameters: dose 62.5 mg/kg, route intraperitoneal; conditions: in vivo, 120 h
Mus musculus [19] = assay: Survival of mouse at 62.5 mg/kg, po bid after 5 days; format: ADME, organism-based; parameters: dose 62.5 mg/kg, route oral; conditions: in vivo, 120 h
Mus musculus [20] = assay: Weight change in mouse at 125 mg/kg, po bid after 14 days; format: ADME, organism-based; parameters: dose 125 mg/kg, route oral; conditions: in vivo, 336 h
Influenza A virus [21] = assay: Antiviral activity against influenza A/Jingfang/Fm1 (H1N1) infected in mouse assessed as mean survival time of mouse at 62.5 mg/kg, ip bid after 2 hrs of viral infection for 5 days; format: functional; conditions: route intraperitoneal
Influenza A virus [22] = assay: Antiviral activity against influenza A/Jingfang/Fm1 (H1N1) infected in mouse assessed as mean survival time of mouse at 125 mg/kg, po bid after 2 hrs of viral infection for 5 days; format: functional
Mus musculus [23] = assay: Weight change in mouse at 62.5 mg/kg, po bid after 14 days; format: ADME, organism-based; parameters: dose 62.5 mg/kg, route oral; conditions: in vivo, 336 h
Influenza A virus [24] = assay: Antiviral activity against influenza A/Jingfang/Fm1 (H1N1) infected in mouse assessed as mean survival time of mouse at 100 mg/kg, ip bid after 2 hrs of viral infection for 5 days; format: functional; conditions: route intraperitoneal
Mus musculus [25] = assay: Weight change in mouse at 100 mg/kg, ip bid after 14 days; format: ADME, organism-based; parameters: dose 100 mg/kg, route intraperitoneal; conditions: in vivo, 336 h
Mus musculus [26] = assay: Survival of mouse at 100 mg/kg, ip bid after 5 days; format: ADME, organism-based; parameters: dose 100 mg/kg, route intraperitoneal; conditions: in vivo, 120 h

SMILES | IC50 (Influenza B virus [1]) | IC50 (Influenza B virus [2]) | IC50 (Influenza B virus [3]) | IC50 (Influenza A virus [4]) | IC50 (Influenza A virus [5]) | IC50 (Influenza A virus [6]; Influenza A virus, MDCK) | IC50 (Influenza A virus [7]) | further results
CCCCCCCCCCCCCCCCOCCCOC(=O)C1=C[C@H](NC(=N)N)[C@@H](NC(C)=O)[C@H]([C@H](O)[C@H](O)CO)O1 | 22.3 µM | 22.3 µM | 23.4 µM | 3.06 µM | 301 nM | 18.1 µM | 3010 nM | 
CCCCCCCCCCCCCCOCCCOC(=O)C1=C[C@H](NC(=N)N)[C@@H](NC(C)=O)[C@H]([C@H](O)[C@H](O)CO)O1 | 37.8 µM | 23.3 µM | 31.5 µM | 1.06 µM | 315 nM | 18.9 µM | 2490 nM | 
CCCCCCCCCCCCCCCCCCOCCOC(=O)C1=C[C@H](NC(=N)N)[C@@H](NC(C)=O)[C@H]([C@H](O)[C@H](O)CO)O1 | 21.8 µM | 66.6 µM | 247 µM | 5.89 µM | 226 nM | 26.8 µM | 2940 nM | Activity (Mus musculus [8]): 13.9 g; survival at 62.5 mg/kg (Influenza A virus [9]): 40%; Activity (Influenza A virus [10]): 9.1 days; Activity (Mus musculus [11]): Active; Activity (Mus musculus [12]): 12.7 g; survival at 31.25 mg/kg (Influenza A virus [13]): 10%; survival at 125 mg/kg (Influenza A virus [14]): 60%; Activity (Influenza A virus [15]): 10.2 days; survival at 62.5 mg/kg (Influenza A virus [16]): 60%; Activity (Mus musculus [17]): Active; Activity (Mus musculus [18]): Active; Activity (Mus musculus [19]): Active; Activity (Mus musculus [20]): 12.5 g; Activity (Influenza A virus [21]): 11.5 days; Activity (Influenza A virus [22]): 11.2 days; Activity (Mus musculus [23]): 13.5 g
NC(=O)c1ncn([C@@H]2O[C@H](CO)[C@@H](O)[C@H]2O)n1 [RIBAVIRIN] | 164 µM | 15.2 µM | 96.2 µM | 7.01 µM | 5850 nM | 176 µM | 5040 nM | Activity (Influenza A virus [24]): 14 days; Activity (Mus musculus [25]): 11.5 g; Activity (Mus musculus [26]): Active
CC(=O)N[C@H]1[C@H]([C@H](O)[C@H](O)CO)OC(C(=O)O)=C[C@@H]1NC(=N)N [ZANAMIVIR] | 1580 µM | 223 µM |  | 0.385 µM | 75 nM |  | 469 nM | IC50 (Influenza A virus [6]; mdck): 16.7 µM
